Test results taken from patent publication EP1289507B1, “USE OF AN ALDOSTERONE ANTAGONIST FOR THE TREATMENT OR PROPHYLAXIS OF ALDOSTERONE-MEDIATED PATHOGENIC EFFECTS” (priority 2000, dated 2001).

Columns and labels:
saline-drinking SHRSP = assay: Protocol 1: renal pathologic changes in saline-drinking SHRSP; assay type: in vivo, male SHRSP/A3N
Method: Animals. Studies were conducted in accordance with institutional guidelines using male SHRSP/A3N (generations F-75 to F-78), n = 37, from our local colony. These animals were bred from NIH stock, derived from the SHRSP/A3N substrain described originally by Okamoto and coworkers (Okamoto K et al. Circ. Res. 34 and 35 (suppl I):I-143-I-153.). All animals were housed in a room maintained on a 12:12-h light:dark-cycle and an ambient temperature of 22 ± 1°C in the Animal Care Facility at New York Medical College. Rats were weaned at 4 weeks of age and allowed free access to Purina Lab Chow 5001 (Ralston Purina, St. Louis, MO) and tap water until the initiation of experimental protocols.
Eighteen SHRSP were given 1% NaCl to drink and were fed Stroke-Prone Rodent Diet (#39-288, Zeigler Brothers, Inc., Gardners, PA) starting at 8.1 weeks of age. […] Vehicle-control littermates received 2 ml/kg/d of the 0.5% methylcellulose solution. Animals were housed individually in metabolic cages so that measurements of 24-h urine output and protein excretion could be made. Animals were examined each day for neurologic signs of stroke. Systolic arterial pressure and heart rate were measured each week in awake rats. The experiment was terminated after 5 weeks of treatment when the animals were 13.1 weeks of age. Trunk blood was collected into chilled EDTA tubes following rapid decapitation of the animals between 10:00 am and 12:00 pm. Blood was stored at - 20°C for later measurement of plasma aldosterone levels. The kidneys were rapidly removed, weighed, and then preserved in fixative for later histologic examination.
Assays and Analyses. Systolic blood pressure and heart rate of awake animals were measured by tail-cuff plethysmography using a Natsume KN-210 manometer and tachometer (Peninsula Laboratories Inc., Belmont, CA). Rats were warmed at 37°C for 10 min and allowed to rest quietly in a Lucite chamber before measurement of blood pressure. Measurements of urine volume were made gravimetrically. Urinary protein concentration was determined by the sulfosalicylic acid turbidity method. Plasma aldosterone was measured by radioimmunoassay using ^125I-aldosterone as a tracer (Coat-a Count Aldosterone, Diagnostic Products Co., Los Angeles, CA).
Histology. Kidneys were preserved in 10% phosphate-buffered formalin. Coronal sections (2-3 µm) were stained with hematoxylin and eosin and examined by light microscopy in a blinded fashion as previously described (Stier CT et al. J Pharmacol Exp Ther (1992) 260:1410-1415). Glomerular damage was categorized as ischemic or thrombotic. Ischemic lesions were defined as retraction of glomerular capillary tufts with or without appreciable mesangiolysis. Glomerular thrombotic lesions were defined as any one of a combination of the following: segmental to global fibrinoid necrosis, focal thrombosis of glomerular capillaries, swelling and proliferation of intracapillary (endothelial and mesangial) and/or extracapillary cells (crescents), and expansion of reticulated mesangial matrix with or without significant hypercellularity. […] Vascular thrombotic lesions were defined as any one or a combination of the following: mural fibrinoid necrosis, extravasation and fragmentation of red blood cells, and luminal and/or mural thrombosis. Proliferative arteriopathy was characterized by proliferation of markedly swollen myointimal cells with swollen round to ovoid vesicular nuclei surrounded by mucinous extracellular matrix ("onion skinning") often resulting in nodular thickening. Vascular damage was expressed as the number of arteries and arterioles with lesions per 100 glomeruli. The presence of casts and tubular (ischemic) retraction and simplification was assessed semiquantitatively.
Statistical Analysis. Significant effects with respect to treatment and time were determined by two-way analysis of variance. Data with only one grouping variable were analyzed statistically by Student's unpaired t tests. […]

[1] = Form H content of dried solids by X-ray powder diffraction (XPRD); assay type: physicochemical; settings: for Estimated Weight Percent of Form H / Form H Peak Area 12° Two Theta Peak: dried solids from methyl ethyl ketone crystallization
Method: The weight percent of the diepoxide or 11,12-epoxide in each sample is given in Tables C-6A and C-6B, respectively. A micro-flea magnetic stirrer was added to each scintillation vial along with 1 mL of methyl ethyl ketone. The vials were loosely capped and the solid dissolved by heating to reflux on a hot plate with magnetic stirring. Once the solids were dissolved, the solutions were allowed to cool to room temperature on the hot plate. Magnetic stirring was maintained during the cooling period. After the solutions reached room temperature, the solids were collected by vacuum filtration and immediately analyzed by X-ray powder diffraction (XPRD). The solids were then placed in a 100°C oven and dried for one hour at ambient pressure. The dried solids were analyzed by XPRD for Form H content by monitoring the area of the Form H diffraction peak at about 12.1 degrees two theta. All XPRD diffraction patterns were recorded using an Inel Multipurpose Diffractometer. Table C-6A
The peak intensities have been normalized for ease of comparison. No Form H was detected for the dried samples corresponding to the methyl ethyl ketone crystallizations performed at doping levels of 0 and 1%. Form H was detected in the dried samples corresponding to the methyl ethyl ketone crystallizations performed at doping levels of 3 and 5%. The area for the Form H diffraction peak at about 12.1 degrees two theta and the estimated Form H content for each sample are given in Table C-6C below. Table C-6C
The peak intensities have been normalized for ease of comparison. No Form H was detected for the dried samples corresponding to the methyl ethyl ketone crystallizations performed at doping levels of 0, 1% and 5%. Form H was detected in the dried samples corresponding to the methyl ethyl ketone crystallization performed at a doping level of 10%. The area for the Form H diffraction peak at 12.1 degrees two theta and estimated Form H content for each sample are given in Table C-6D. Table C-6D
Table C-7B reports the weight fraction of Form H measured in materials dried using either a fluid bed (LAB-LINE/P.R.L. Hi-Speed Fluid Bed Dryer, Lab-Line Instruments, Inc.) or a vacuum oven (Baxter Scientific Products Vacuum Drying Oven, Model DP-32). […] Table C-7B

[2] = oral eplerenone 100 mg/kg/d, preterminal
[3] = 0% 11,12-epoxide in starting eplerenone mixture
[4] = 0% diepoxide in starting eplerenone mixture
[5] = 1% 11,12-epoxide in starting eplerenone mixture
[6] = 1% diepoxide in starting eplerenone mixture
[7] = 3% diepoxide in starting eplerenone mixture
[8] = 5% 11,12-epoxide in starting eplerenone mixture
[9] = 5% diepoxide in starting eplerenone mixture
[10] = 10% 11,12-epoxide in starting eplerenone mixture

Structure (SMILES): COC(=O)[C@@H]1CC2=CC(=O)CC[C@]2(C)[C@@]23O[C@@H]2C[C@@]2(C)[C@@H](CC[C@@]24CCC(=O)O4)[C@H]13 [Eplerenone, Pregn-4-ene-7,21-dicarboxylic acid, 9,11-epoxy-17-hydroxy-3-oxo-, γ-lactone, methyl ester, (7α, 11α, 17β)-]
- Glomerular damage, Ischemic (saline-drinking SHRSP; 100 mg/kg/d by gavage, 5 weeks): 1.0 ± 1.0 lesions/100 glomeruli
- Glomerular damage, Thrombotic (saline-drinking SHRSP; 100 mg/kg/d by gavage, 5 weeks): 0.1 ± 0.1 lesions/100 glomeruli
- Glomerular damage, Total (saline-drinking SHRSP; 100 mg/kg/d by gavage, 5 weeks): 1.0 ± 1.0 lesions/100 glomeruli
- Renal angiopathy, Proliferative (saline-drinking SHRSP; 100 mg/kg/d by gavage, 5 weeks): 0.1 ± 0.1 lesions/100 glomeruli
- Renal angiopathy, Thrombotic (saline-drinking SHRSP; 100 mg/kg/d by gavage, 5 weeks): 1.0 ± 1.0 lesions/100 glomeruli
- Renal angiopathy, Total (saline-drinking SHRSP; 100 mg/kg/d by gavage, 5 weeks): 1.0 ± 1.0 lesions/100 glomeruli
- Protein casts, % of tubules (saline-drinking SHRSP; 100 mg/kg/d, 5 weeks): 0.11 ± 0.04%
- tubules displaying ischemic retraction and simplification (saline-drinking SHRSP; 100 mg/kg/d, 5 weeks): 0.5 ± 0.2%
- evidence of stroke (saline-drinking SHRSP; n = 9, P < .01 vs vehicle): none
- renal lesions (saline-drinking SHRSP; oral eplerenone 100 mg/kg/d for 5 to 6 weeks): 1 ± 1%
- proteinuria (urinary protein excretion) (saline-drinking SHRSP; [2]): 16 ± 2 mg/day
- severe hypertension (systolic blood pressure) (saline-drinking SHRSP; [2]): 219 ± 6 mm Hg
- Weight Percent Form H (XPRD) ([1]; cooling rate (0) 1.5°C/min, endpoint (0) 25°C, 100.8% eplerenone seeded with Form H, analyzed by DSC): 100 Weight Percent
- Weight Percent Form H (XPRD) ([1]; cooling rate (0) 1.5°C/min, endpoint (0) 25°C, 100.8% eplerenone seeded with Form H, analyzed by XPRD): 77 Weight Percent
- Weight Percent Form H (XPRD) ([1]; cooling rate (+) 3°C/min, cooling endpoint (+) 45°C, impurity level (+) 89.3% purity starting material): 29 Weight Percent
- Weight Percent Form H (XPRD) ([1]; cooling rate (-) 0.1°C/min, cooling endpoint (+) 45°C, impurity level (+) 89.3% purity starting material): 31 Weight Percent
- Weight Percent Form H ([1]; cooling rate High, end point High, impurity level High, drying: High Fluid Bed): 25%
- Weight Percent Form H ([1]; cooling rate High, end point High, impurity level High, drying: Low Fluid Bed): 4.7%
- Weight Percent Form H ([1]; cooling rate High, end point High, impurity level High, drying: Vacuum Oven): 29%
- Weight Percent Form H ([1]; cooling rate Low, end point Low, impurity level Low, drying: Low Fluid Bed): 5.5%
- Estimated Weight Percent of Form H [1, 3]: None Detected
- Form H Peak Area 12° Two Theta Peak [1, 3]: None Detected
- Estimated Weight Percent of Form H [1, 4]: None Detected
- Form H Peak Area 12° Two Theta Peak [1, 4]: None Detected
- Estimated Weight Percent of Form H [1, 5]: None Detected
- Form H Peak Area 12° Two Theta Peak [1, 5]: None Detected
- Estimated Weight Percent of Form H [1, 6]: None Detected
- Form H Peak Area 12° Two Theta Peak [1, 6]: None Detected
- Estimated Weight Percent of Form H [1, 7]: 10%
- Form H Peak Area 12° Two Theta Peak [1, 7]: 1168
- Estimated Weight Percent of Form H [1, 8]: None Detected
- Form H Peak Area 12° Two Theta Peak [1, 8]: None Detected
- Estimated Weight Percent of Form H [1, 9]: 30%
- Form H Peak Area 12° Two Theta Peak [1, 9]: 4175
- Estimated Weight Percent of Form H [1, 10]: 10-15%
- Form H Peak Area 12° Two Theta Peak [1, 10]: 1541
